Data as given in ChEMBL document CHEMBL1201862, “PubChem BioAssay data set” (2004).
Calls of active or inactive are those of the source.

What was measured:
[1] = CEM21 lymphoblast cell cytotoxicity, dose response, cytotoxicity control for viral fusion inhibitor project, CellTiter-Glo luminescence, cherry-picked (AID 652042); type: functional, cell-based;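 also: potency for signal decrease meaning cytotoxicity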
[2] = inhibitors of HIV Env-driven cell fusion, dose response, cherry-pick (AID 652057); type: functional, cell-based
[3] = HeLa cell cytotoxicity, dose response, cytotoxicity control for MgcRacGAP inhibitor project (AID 624300); type: functional
INS1 = assay: beta cell apoptosis inhibitors, cytokine rescue, dose response, luminescence, retest (AID 449756); type: functional, cell-based; details: Rattus norvegicus;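 also: cell death triggered by IL-1 beta plus TNF-alpha plus IFN-gamma mixture; protective hits raise ATP signal compared with cytokine alone wells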
[4] = biological target: T1, Rac GTPase-activating protein 1 (Homo sapiens, UniProt Q9H0H5); assay: MgcRacGAP GTPase-activating activity inhibitors, confirmation, biochemical, ADP Hunter fluorescence, primary and confirmatory (AID 624330); type: functional
T1 sequence (Q9H0H5 whole entry): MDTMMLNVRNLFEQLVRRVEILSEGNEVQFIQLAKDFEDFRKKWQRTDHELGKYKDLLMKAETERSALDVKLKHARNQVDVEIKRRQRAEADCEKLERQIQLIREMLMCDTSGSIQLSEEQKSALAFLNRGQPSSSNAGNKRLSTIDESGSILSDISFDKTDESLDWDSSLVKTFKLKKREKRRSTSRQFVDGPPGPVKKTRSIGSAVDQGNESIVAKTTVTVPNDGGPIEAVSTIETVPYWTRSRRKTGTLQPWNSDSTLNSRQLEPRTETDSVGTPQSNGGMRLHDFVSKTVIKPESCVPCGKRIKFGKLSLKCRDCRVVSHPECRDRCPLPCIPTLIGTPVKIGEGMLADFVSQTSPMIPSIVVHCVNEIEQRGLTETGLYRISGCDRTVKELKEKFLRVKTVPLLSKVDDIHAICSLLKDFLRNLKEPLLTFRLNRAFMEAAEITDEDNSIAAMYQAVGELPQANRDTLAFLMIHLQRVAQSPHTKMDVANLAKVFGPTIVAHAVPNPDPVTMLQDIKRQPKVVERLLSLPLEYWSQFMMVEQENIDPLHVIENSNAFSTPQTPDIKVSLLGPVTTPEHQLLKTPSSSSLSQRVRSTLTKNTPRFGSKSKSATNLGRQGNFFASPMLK

[5] = A Cell Based Secondary Assay To Explore Cytotoxicity of Compounds that Sensitize Mycobacterium Tuberculosis to Beta-Lactam Antibiotics.; type: functional
Mu-type opioid receptor = Mu-type opioid receptor (Homo sapiens, UniProt P35372); type: functional, cell-based;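 also: U2OS cells with beta-arrestin recruitment to OPRM1 by beta-gal complementation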
Streptokinase A = biological target: T2, Streptokinase A (Streptococcus pyogenes serotype M1, UniProt P10520); assay: S. pyogenes streptokinase expression inhibitors, potency, dose response, plasminogen activation absorbance, OD405 (AID 1914); type: functional, Streptococcus pyogenes M1 GAS;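 also: secreted streptokinase activity via plasminogen activation per viability signal from cell pellet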
T2 sequence (P10520 whole entry): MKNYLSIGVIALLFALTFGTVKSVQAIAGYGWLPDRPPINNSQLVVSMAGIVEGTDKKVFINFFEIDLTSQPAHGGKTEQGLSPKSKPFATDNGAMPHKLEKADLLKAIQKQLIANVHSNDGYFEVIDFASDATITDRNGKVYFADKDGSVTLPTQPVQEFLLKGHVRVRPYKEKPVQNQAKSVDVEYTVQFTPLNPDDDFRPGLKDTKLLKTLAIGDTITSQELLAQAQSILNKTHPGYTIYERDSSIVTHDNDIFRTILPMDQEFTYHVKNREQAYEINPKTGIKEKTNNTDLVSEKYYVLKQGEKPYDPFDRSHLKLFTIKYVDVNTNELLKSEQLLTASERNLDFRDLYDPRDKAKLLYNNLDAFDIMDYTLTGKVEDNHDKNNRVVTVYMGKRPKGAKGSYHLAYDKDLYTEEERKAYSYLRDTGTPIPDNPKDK

[6] = system: Streptococcus sp. 'group A'; assay: growth inhibition of control SK(-) GAS strain, dose response, counter-screen for streptokinase expression inhibitor project, luminescence, kanamycin, BacTiterGlo, confirmation (AID 1900); type: functional, organism-based
[7] = biological target: 5-hydroxytryptamine receptor 2A (Mus musculus, UniProt P35363); type: functional, cell-based;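 also: CHO-K1 cells with tagged receptor and beta-arrestin; agonist potency measured as compound-induced activation of the receptor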
Streptococcus = assay: Group A Streptococcus viability loss, dose response, counter-screen for streptokinase expression inhibitor project, luminescence, BacTiterGlo (AID 1915); type: functional, organism-based;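 also: potency for reduction of bacterial viability or growth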
cells [8] = type: functional, cell-based
cells [9] = type: functional, cell-based; remark: listed apart in the source
[10] = biological target: T3, DNA repair and recombination protein RAD54-like (Homo sapiens, UniProt Q92698); assay: inhibitors of human RAD54 branch migration, confirmation, biochemical, fluorescence, cherry-picked samples, dose series (AID 651657); type: functional
T3 sequence (Q92698 whole entry): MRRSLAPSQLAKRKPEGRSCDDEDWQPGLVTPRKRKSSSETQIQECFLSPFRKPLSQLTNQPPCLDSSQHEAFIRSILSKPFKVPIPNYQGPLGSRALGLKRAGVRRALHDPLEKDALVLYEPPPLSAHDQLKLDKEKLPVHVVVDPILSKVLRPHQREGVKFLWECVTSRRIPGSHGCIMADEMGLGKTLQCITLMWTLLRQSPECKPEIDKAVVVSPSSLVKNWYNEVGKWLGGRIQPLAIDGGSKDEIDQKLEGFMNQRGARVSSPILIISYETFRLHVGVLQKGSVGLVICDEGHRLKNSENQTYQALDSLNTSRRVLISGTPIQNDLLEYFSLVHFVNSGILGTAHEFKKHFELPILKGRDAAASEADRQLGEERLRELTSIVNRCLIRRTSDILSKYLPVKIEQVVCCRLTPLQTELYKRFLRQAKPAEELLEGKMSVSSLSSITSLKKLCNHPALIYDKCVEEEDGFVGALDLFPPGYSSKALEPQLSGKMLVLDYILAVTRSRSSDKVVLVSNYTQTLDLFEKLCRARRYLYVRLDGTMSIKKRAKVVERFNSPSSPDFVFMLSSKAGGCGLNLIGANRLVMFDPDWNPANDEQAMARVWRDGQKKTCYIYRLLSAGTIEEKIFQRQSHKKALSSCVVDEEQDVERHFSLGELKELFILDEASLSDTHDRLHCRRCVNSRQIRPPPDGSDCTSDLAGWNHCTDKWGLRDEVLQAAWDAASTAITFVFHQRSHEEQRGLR

[11] = biological target: T4, Trace amine-associated receptor 1 (Homo sapiens, UniProt Q96RJ0); assay: Counterscreen for agonists of the human trace amine associated receptor 1 (hTAAR1): Fluorescence-based cell-based high throughput dose response assay to identify hTAAR1 agonist that also desensitize TAAR1 receptor response.; type: functional
T4 sequence (Q96RJ0 whole entry): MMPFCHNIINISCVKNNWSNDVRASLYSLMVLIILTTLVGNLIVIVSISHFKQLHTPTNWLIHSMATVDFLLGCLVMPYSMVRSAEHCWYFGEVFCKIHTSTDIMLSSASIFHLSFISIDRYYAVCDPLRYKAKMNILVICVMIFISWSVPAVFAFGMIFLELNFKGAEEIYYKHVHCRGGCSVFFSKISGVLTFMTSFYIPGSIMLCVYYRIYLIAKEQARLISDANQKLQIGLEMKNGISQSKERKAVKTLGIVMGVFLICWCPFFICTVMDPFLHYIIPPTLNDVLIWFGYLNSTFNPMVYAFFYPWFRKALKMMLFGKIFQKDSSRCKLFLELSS

Large T antigen = Large T antigen (Simian virus 40, UniProt P03070); type: functional, Betapolyomavirus macacae;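 also: Confirmatory-stage PubChem screen for compounds that inhibit SV40 T antigen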
[12] = biological target: T4, Trace amine-associated receptor 1; assay: Fluorescence-based cell-based high throughput dose response assay to identify agonists of the human trace amine associated receptor 1 (TAAR1).; type: functional
[13] = biological target: T5, Sentrin-specific protease 1 (Homo sapiens, UniProt Q9P0U3); assay: Dose response confirmation of small molecule inhibitors of the catalytic domain of the SUMO protease, SENP1 in a FRET assay.; type: functional; details: read-out: IC50_Mean
T5 sequence (Q9P0U3 whole entry): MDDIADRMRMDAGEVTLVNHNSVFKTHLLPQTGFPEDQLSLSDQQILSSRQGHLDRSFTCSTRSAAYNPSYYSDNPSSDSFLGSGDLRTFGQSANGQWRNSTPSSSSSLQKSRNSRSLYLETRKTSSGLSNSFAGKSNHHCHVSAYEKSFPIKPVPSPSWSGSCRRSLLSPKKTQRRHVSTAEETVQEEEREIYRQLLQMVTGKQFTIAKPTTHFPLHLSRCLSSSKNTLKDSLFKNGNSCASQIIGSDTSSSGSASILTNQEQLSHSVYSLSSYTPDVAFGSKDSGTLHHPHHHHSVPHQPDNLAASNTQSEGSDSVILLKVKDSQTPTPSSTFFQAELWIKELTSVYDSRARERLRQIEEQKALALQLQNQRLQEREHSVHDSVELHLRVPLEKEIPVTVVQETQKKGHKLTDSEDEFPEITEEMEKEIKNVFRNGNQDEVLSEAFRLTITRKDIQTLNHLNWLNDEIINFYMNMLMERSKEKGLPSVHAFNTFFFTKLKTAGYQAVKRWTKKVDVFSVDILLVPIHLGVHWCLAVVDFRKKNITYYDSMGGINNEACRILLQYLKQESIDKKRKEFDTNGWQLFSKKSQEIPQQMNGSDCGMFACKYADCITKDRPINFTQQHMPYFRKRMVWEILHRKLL

[14] = biological target: T5, Sentrin-specific protease 1; assay: potency of human SENP1 inhibitors, dose response, biochemical, kinetic FRET (AID 651697); type: functional; details: read-out: IC50_Mean
[15] = biological target: Fructose-bisphosphate aldolase (Mycobacterium tuberculosis, UniProt P9WQA3); assay: Fluorescence-based biochemical high throughput dose response assay for inhibitors of the fructose-bisphosphate aldolase (FBA) of M. tuberculosis.; type: functional
Cysteine protease ATG4B = biological target: T6, Cysteine protease ATG4B (Homo sapiens, UniProt Q9Y4P1); type: functional;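 also: Fluorescence-based dose-response confirmation assay measuring inhibition of ATG4B activity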
T6 sequence (Q9Y4P1 whole entry): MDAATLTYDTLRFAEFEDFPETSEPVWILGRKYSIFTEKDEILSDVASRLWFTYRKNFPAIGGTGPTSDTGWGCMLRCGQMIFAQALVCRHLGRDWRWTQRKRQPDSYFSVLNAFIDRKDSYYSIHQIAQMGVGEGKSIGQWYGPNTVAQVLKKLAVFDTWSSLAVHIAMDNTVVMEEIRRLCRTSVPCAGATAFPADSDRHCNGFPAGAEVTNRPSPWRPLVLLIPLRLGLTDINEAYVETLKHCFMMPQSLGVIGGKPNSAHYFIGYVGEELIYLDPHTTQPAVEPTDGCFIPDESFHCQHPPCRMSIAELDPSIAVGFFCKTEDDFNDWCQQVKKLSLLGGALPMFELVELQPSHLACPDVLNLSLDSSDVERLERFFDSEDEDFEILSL

Cytochrome P450 1A2 = biological target: T7, Cytochrome P450 1A2 (Homo sapiens, UniProt P05177);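 also: PubChem cytochrome P450 panel assay, CYP1A2 panel member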
T7 sequence (P05177 whole entry): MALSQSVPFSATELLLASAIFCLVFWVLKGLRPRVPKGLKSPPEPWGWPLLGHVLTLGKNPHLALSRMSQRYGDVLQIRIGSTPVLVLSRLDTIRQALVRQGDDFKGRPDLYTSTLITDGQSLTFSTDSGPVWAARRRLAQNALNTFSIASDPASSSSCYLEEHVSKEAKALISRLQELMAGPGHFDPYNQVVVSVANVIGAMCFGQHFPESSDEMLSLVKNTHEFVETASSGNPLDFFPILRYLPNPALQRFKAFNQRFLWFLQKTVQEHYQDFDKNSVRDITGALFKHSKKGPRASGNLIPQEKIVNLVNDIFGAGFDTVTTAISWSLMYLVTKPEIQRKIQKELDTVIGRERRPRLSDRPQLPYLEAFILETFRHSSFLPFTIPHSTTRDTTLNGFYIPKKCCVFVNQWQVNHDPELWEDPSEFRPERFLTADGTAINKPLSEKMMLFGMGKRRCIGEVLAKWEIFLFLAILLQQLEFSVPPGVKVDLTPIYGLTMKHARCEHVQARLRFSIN

Phospholipase A2 = Phospholipase A2 (Homo sapiens, UniProt P04054); type: functional;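 also: confirmatory dose-response counterscreen on phospholipase A2, testing hits that came from an ultra-high-throughput screen for ATG4B inhibitors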
[16] = ZM109 Env clade C HIV-1 fusion inhibitors, dose response, HeLa effector, CEM target cells, luciferase, cherry-pick (AID 652058); type: functional, cell-based
[17] = inhibitors of clade B AD8 Env fusion, dose response, cell-based, cherry-pick (AID 652062); type: functional;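 also: luciferase signal from cell-cell fusion driven by HIV-1 clade B AD8 Env; potency is for inhibitors of fusion seen as a drop in luminescence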

Sequence of Fructose-bisphosphate aldolase (P9WQA3 whole entry): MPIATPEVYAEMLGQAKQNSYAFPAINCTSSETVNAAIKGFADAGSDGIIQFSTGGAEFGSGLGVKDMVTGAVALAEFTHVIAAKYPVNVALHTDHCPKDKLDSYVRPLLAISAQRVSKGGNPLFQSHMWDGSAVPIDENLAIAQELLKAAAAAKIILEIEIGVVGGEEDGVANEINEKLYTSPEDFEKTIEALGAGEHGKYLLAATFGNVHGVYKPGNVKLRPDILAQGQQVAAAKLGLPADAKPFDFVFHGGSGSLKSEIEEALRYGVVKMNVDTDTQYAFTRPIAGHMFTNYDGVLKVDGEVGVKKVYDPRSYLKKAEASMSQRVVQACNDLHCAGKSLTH
Sequence of Mu-type opioid receptor (P35372 whole entry): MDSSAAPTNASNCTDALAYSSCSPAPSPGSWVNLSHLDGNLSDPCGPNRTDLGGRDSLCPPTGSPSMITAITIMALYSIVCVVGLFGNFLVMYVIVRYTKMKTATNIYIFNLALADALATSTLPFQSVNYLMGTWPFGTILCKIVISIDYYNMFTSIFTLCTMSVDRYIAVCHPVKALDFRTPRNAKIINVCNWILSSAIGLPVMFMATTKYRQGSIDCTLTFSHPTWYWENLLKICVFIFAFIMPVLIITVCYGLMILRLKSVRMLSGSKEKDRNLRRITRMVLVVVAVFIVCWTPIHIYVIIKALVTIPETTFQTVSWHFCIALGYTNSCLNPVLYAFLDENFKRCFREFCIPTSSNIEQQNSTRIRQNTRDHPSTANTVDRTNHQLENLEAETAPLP
Sequence of 5-hydroxytryptamine receptor 2A (P35363 whole entry): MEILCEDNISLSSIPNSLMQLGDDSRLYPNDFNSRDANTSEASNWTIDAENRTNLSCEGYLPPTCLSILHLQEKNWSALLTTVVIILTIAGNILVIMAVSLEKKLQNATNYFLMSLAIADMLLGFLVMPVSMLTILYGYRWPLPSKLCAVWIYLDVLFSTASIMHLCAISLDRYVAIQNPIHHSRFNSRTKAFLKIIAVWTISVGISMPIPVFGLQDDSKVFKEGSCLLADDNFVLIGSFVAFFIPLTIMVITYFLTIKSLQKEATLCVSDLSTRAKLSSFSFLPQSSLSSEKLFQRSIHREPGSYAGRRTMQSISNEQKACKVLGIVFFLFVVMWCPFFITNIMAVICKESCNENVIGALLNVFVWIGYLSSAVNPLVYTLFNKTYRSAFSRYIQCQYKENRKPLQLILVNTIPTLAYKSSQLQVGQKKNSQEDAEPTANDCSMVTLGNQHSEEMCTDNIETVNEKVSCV
Sequence of Large T antigen (P03070 whole entry): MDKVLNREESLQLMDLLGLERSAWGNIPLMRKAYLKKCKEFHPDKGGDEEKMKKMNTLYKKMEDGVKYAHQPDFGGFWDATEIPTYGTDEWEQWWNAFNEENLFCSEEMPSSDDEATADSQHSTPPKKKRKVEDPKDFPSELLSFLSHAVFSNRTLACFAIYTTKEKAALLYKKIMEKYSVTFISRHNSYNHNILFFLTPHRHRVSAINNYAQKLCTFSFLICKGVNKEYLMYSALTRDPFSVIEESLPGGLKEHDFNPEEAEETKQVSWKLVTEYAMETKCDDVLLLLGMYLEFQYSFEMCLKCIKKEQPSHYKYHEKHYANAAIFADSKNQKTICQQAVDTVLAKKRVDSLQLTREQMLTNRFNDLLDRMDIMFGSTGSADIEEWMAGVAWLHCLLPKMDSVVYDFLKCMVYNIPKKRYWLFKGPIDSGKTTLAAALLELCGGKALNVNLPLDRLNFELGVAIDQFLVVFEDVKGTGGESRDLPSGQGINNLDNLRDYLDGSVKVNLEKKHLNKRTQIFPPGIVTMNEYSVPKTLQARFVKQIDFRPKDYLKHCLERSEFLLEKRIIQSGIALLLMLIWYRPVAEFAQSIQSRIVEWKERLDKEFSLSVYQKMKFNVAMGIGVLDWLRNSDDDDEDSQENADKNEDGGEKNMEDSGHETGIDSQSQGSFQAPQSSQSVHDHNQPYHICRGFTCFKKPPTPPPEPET
Sequence of Phospholipase A2 (P04054 whole entry, the tested form may be a part): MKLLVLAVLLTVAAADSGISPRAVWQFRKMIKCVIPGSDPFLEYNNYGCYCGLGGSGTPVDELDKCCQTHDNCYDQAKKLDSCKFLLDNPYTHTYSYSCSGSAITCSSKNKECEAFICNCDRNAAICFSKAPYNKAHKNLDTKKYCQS

CCc1nc(N2CCCCC2)c2oc3ccccc3c2n1
AC50 [1]: 41.8 µM (active) | AC50 [2]: 30.8 µM (active)

Cc1ccc2c(c1)[nH]c1c(N3CCN(Cc4ccccc4)CC3)ncnc12
CC50 [3]: 57.9 µM (active) | AC50 (INS1): 3.89 µM (active) | IC50 [4]: 47.8 µM (active)

COc1ccc2oc(C(=O)Nc3nc4ccccc4[nH]3)c(C)c2c1
CC50 [5]: > 40 µM (active) | EC50 (Mu-type opioid receptor): 92.5 µM (inactive) | EC50 (Streptokinase A): > 150 µM (not active) | EC50 [6]: 2.61 µM (active) | EC50 [7]: 76.1 µM (inactive) | EC50 (Streptococcus): 12 µM (active)

OCCNc1nc(Nc2ccc(O)cc2)nc2ccccc12
EC50 (cells [8]): > 29.9 µM (inactive) | IC50 (cells [9]): > 29.9 µM (inactive) | AC50 [10]: 38.6 µM (active) | IC50 [11]: 1.64 µM (active) | IC50 (Large T antigen): 4.5 µM (active) | EC50 [12]: 0.578 µM (active)

Cc1ccc2n(n1)c(=O)c(Cc1ccccc1)c([O-])[n+]2-c1ccccc1
IC50 [13]: 12.7 µM (active) | IC50 [14]: 16.8 µM (active)

N#CCCN(C(=O)COc1ccc(F)cc1Br)c1ccccc1F
IC50 [15]: > 9.99 µM (inactive)

CCO[C@@H]1c2c(ccc3ccc(=O)oc23)OC(C)(C)[C@H]1O
IC50 [15]: > 1.11 µM (active)

CC(C)c1ccc2nc3sc(C(=O)N4CCc5ccccc5C4)c(N)c3cc2c1
IC50 (Cysteine protease ATG4B): 7.08 µM (active) | AC50 (Cytochrome P450 1A2): 11.2 µM (inconclusive) | EC50 (Streptokinase A): 101 µM (active) | IC50 [13]: 5.22 µM (active) | EC50 [6]: 25.6 µM (active) | IC50 (Phospholipase A2): 4.83 µM (active) | EC50 (Streptococcus): > 150 µM (not active) | IC50 [14]: 2.58 µM (active)

Cn1c2c(c3ccccc31)CCN(CCCCN1CCN(c3ccccc3)CC1)C2=O
EC50 (Mu-type opioid receptor): 92.4 µM (inactive) | EC50 [7]: 0.0455 µM (active)

COc1ccc2c3c([nH]c2c1)[C@@H](CO)N(C(=O)Nc1cccc(F)c1)CC31CN(S(=O)(=O)c2cccc(C)c2)C1
AC50 [1]: 23.1 µM (active) | AC50 [2]: 22.7 µM (active) | AC50 [16]: 14.9 µM (active) | AC50 [17]: 24.2 µM (active)

CCOc1ccc(C/C(=N/CCc2ccccc2)C2=C(O)CC(C)(C)CC2=O)cc1OCC
EC50 (cells [8]): > 29.9 µM (inactive) | IC50 (cells [9]): > 29.9 µM (inactive) | IC50 [11]: 2.84 µM (active) | EC50 [12]: 0.358 µM (active)
